Data reported in paper PMC6804997 (PLoS ONE, 2019).

Key:
Assay in all cases: HDAC enzyme inhibition assay (Ac-peptide-AMC substrate)
Assay type in all cases: biochemical
HDAC4 = HDAC4 (Homo sapiens, UniProt P56524); conditions: HDAC4 vs HDAC6
Method: (§1) HDACs inhibition assay of F7 was performed utilizing 4-amino-7-methylcoumarin (AMC) labeled Ac-peptide (Ac-peptide-AMC) substrates, a service provided by Chempartner Company (Shanghai, China).
(§2) This assay was performed was performed utilizing 4-amino-7-methylcoumarin (AMC) labeled Ac-peptide (Ac-peptide-AMC) substrates, a service provided by Chempartner Company (Shanghai, China).

HDAC5 = HDAC5 (Homo sapiens, UniProt Q9UQL6); conditions: HDAC5 vs HDAC6
Method: as §1, §2

HDAC9 = HDAC9 (Homo sapiens, UniProt Q9UKV0); conditions: HDAC9 vs HDAC6
Method: as §1, §2

HDAC11 = target: T1, HDAC11 (Homo sapiens, UniProt Q96DB2); conditions: HDAC11 vs HDAC6
T1 sequence (Q96DB2 1-347): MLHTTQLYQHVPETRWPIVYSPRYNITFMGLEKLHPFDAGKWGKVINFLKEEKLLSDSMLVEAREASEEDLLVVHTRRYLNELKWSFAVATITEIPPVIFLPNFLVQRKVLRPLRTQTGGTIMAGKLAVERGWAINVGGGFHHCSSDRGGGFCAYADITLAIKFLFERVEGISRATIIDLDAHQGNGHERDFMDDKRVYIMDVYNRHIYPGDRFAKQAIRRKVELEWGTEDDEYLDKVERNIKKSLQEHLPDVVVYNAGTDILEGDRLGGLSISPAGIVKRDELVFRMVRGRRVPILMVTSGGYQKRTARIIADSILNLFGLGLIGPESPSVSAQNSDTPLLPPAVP
Method: as §1, §2

HDAC7 = target: T2, HDAC7 (Homo sapiens, UniProt Q8WUI4); conditions: HDAC7 vs HDAC6
T2 sequence (Q8WUI4 1-952): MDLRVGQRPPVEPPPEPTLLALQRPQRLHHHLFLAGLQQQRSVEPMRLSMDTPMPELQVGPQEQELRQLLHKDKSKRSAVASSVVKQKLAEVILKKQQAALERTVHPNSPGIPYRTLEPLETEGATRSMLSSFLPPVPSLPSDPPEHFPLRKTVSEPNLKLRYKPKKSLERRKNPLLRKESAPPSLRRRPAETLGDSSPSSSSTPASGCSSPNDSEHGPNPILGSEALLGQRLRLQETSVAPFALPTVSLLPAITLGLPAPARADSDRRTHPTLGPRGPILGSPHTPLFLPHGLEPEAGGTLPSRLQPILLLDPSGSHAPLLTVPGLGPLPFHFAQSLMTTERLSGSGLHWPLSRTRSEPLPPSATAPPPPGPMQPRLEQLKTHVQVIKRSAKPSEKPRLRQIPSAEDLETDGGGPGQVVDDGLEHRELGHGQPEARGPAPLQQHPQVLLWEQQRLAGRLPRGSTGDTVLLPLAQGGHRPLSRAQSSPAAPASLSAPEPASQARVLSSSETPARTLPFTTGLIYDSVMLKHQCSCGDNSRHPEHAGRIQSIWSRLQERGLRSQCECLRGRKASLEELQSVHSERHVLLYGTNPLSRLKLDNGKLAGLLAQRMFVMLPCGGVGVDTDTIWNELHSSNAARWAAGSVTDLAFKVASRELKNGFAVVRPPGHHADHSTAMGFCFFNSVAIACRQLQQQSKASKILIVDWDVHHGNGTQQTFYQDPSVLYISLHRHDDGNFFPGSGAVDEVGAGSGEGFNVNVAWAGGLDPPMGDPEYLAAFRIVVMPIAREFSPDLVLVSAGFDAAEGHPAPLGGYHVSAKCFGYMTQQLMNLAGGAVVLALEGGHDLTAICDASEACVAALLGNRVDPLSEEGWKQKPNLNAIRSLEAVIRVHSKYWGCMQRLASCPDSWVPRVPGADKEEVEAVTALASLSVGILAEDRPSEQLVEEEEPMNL
Method: as §1, §2

Sequence of HDAC5 (Q9UQL6 whole entry, species assumed): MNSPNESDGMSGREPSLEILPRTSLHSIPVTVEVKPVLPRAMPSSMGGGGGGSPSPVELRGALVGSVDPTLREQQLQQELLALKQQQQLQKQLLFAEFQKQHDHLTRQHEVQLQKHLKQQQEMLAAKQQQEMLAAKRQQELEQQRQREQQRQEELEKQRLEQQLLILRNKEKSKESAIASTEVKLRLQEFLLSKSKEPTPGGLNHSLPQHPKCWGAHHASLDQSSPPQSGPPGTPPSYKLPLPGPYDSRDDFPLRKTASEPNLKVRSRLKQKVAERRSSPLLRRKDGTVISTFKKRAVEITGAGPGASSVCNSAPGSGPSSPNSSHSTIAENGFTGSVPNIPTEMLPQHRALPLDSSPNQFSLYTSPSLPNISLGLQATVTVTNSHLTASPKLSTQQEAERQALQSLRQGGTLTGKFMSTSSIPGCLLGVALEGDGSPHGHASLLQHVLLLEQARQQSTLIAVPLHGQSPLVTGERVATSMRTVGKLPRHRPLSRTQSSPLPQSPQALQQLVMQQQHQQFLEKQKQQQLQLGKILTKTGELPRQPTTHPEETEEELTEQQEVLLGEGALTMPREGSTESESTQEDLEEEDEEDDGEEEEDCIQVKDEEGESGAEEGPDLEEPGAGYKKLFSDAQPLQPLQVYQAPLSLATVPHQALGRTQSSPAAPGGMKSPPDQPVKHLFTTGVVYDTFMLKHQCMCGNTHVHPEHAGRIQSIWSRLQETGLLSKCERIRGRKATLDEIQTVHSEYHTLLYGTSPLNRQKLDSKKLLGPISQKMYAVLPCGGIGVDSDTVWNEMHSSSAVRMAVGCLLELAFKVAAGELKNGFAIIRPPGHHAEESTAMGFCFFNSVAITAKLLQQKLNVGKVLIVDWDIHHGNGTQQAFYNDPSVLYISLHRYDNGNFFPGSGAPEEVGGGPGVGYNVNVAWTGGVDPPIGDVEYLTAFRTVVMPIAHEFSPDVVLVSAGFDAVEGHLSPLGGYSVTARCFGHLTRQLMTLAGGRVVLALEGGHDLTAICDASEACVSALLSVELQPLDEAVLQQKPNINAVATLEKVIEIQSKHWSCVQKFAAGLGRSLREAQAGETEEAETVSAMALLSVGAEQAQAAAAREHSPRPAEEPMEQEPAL
Sequence of HDAC9 (Q9UKV0 whole entry, species assumed): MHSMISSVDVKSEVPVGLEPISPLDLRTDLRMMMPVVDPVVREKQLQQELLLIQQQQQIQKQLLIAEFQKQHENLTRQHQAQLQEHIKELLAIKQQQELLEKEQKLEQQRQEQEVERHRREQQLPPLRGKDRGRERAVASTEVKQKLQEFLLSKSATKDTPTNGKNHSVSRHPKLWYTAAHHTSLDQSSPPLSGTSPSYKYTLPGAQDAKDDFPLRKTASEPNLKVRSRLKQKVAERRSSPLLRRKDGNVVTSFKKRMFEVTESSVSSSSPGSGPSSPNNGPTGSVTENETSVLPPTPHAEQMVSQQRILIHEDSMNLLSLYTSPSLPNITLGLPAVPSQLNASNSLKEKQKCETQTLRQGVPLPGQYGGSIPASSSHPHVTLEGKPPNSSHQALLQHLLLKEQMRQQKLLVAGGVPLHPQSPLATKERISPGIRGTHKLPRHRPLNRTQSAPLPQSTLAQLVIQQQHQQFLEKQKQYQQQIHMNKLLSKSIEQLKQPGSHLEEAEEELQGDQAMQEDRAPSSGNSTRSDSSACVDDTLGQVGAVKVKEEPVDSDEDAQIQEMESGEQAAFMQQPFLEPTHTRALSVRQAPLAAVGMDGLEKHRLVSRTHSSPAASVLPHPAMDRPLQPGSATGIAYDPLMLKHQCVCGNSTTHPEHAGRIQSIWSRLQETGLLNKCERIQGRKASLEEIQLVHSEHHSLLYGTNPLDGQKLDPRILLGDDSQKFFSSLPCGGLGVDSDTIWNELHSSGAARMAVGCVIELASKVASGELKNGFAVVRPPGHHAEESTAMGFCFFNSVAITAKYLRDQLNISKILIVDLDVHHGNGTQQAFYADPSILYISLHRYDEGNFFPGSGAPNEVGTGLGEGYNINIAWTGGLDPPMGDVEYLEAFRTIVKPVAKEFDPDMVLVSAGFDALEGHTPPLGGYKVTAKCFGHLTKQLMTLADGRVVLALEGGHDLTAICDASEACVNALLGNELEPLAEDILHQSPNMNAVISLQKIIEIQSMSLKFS
Sequence of HDAC4 (P56524 whole entry, species assumed): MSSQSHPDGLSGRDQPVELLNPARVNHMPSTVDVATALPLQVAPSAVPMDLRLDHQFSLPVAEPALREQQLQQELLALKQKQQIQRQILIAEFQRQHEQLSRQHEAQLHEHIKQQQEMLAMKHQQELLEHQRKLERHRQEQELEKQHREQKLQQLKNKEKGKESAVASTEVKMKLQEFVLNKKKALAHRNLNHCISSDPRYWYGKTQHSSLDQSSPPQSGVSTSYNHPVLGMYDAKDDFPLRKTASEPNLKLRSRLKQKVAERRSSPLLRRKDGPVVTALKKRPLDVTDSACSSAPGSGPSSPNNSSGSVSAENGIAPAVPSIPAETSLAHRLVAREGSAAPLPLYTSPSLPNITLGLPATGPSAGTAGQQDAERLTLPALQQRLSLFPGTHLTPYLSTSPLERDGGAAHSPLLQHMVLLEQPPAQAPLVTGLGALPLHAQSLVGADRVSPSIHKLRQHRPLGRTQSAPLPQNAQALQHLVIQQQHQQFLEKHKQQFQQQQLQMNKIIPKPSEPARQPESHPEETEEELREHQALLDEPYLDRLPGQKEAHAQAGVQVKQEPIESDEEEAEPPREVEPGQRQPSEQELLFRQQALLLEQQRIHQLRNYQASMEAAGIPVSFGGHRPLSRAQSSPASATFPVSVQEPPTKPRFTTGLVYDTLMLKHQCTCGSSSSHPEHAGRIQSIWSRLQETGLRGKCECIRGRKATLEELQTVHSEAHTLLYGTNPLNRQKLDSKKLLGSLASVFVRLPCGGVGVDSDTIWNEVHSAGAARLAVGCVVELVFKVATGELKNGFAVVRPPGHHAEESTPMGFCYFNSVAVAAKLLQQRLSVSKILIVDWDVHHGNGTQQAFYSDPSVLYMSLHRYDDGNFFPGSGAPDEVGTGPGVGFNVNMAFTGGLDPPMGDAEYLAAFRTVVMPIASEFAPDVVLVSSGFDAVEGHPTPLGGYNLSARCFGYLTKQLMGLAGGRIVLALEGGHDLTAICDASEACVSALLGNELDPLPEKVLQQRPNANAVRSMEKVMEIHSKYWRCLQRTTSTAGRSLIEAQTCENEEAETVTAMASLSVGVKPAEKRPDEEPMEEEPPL

COc1ccc(N(C)c2nc(C)nc3ccccc23)cc1OCCCC(=O)NO [23BB, N-hydroxy-4-(2-methoxy-5-(methyl(2-methylquinazolin-4-yl)-amino)phenoxy)butanamide]
> 588.235: Selective Ratio HDAC4 (HDAC4) | Selective Ratio HDAC5 (HDAC5) | Selective Ratio HDAC9 (HDAC9) | Selective Ratio HDAC11 (HDAC11) | Selective Ratio HDAC7 (HDAC7)
